Data reported in patent US10144737B2 (ETERNITY BIOSCIENCE INC., priority 2014, dated 2018).

Tests used:
[1] = target: T1, Btk (Homo sapiens, UniProt Q06187); test: Btk kinase assay (ADP-Glo); format: biochemical; settings: ADP-Glo Btk kinase assay kit; ATP 1.2 μM; 60 minutes at room temperature
T1 construct: purchased Promega (Madison, Wis.)
Summary of the method: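 Luminescent ADP detection after a 60 min reaction at 22±1 °C containing Btk 2 ng/μl, 1.2 μM ATP, 0.3 μM poly GT peptide and 1.4 mM MnCl2. IC50 from log concentration versus percent inhibition relative to DMSO vehicle.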

[2] = test system: TMD-8 cells; test: Cell proliferation assay (CellTiter-Glo), TMD-8 cells; format: cell-based; settings: Homo sapiens, TMD8, 120 h, 5-day treatment, read-out: TMD8 cell growth (GI50 μM)
Summary of the method: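 TMD-8 cells seeded at 5,000–10,000/well, cultured overnight, then exposed to compound (vehicle 0.5% DMSO) for 5 days at 37 °C. Growth read by CellTiter-Glo luminescence; IC50 from log concentration versus % growth inhibition relative to vehicle.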

T1 sequence (Q06187 whole entry): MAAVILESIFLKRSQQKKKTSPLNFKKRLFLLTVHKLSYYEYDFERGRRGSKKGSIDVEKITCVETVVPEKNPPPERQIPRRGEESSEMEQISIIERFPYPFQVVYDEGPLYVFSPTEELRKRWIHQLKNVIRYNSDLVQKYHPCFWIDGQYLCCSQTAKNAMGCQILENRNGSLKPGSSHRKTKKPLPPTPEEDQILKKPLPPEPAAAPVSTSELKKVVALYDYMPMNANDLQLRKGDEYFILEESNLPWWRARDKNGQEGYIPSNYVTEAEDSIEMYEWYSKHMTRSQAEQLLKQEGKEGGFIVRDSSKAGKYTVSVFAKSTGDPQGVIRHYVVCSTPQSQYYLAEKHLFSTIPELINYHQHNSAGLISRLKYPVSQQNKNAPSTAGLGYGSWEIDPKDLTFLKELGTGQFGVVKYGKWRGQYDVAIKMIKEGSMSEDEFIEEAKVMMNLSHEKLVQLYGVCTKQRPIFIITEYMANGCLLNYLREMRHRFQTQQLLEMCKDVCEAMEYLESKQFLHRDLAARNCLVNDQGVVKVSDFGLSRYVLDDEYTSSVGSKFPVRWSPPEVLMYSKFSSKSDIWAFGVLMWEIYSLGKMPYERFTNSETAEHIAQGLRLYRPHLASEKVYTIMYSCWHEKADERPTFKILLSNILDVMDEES

| IC50 [1] [µM] | SMILES | GI50 [2] [µM] |
| --- | --- | --- |
| 0.008 | C=CC(=O)N1CC[C@@H](Nc2ncnc3[nH]c(C#CCOc4cccc5c4OCO5)cc23)C1 [Example 83, (R)-1-(3-((6-(3-(benzo[d][1,3]dioxol-4-yloxy)prop-1-yn-1-yl)-7H-pyrrolo[2,3-d]pyrimidin-4-yl)amino)pyrrolidin-1-yl)prop-2-en-1-one] | 0.0017 |
| 0.136 | C=CC(=O)N1CC[C@@H](Nc2ncnc3[nH]c(C#CCOC4CCCCO4)cc23)C1 (stereo partly drawn) [Example 84, 1-((3R)-3-((6-(3-((tetrahydro-2H-pyran-2-yl)oxy)prop-1-yn-1-yl)-7H-pyrrolo[2,3-d]pyrimidin-4-yl)amino)pyrrolidin-1-yl)prop-2-en-1-one] | 1.09 |
| 0.007 | C#CC(=O)N1CC[C@@H](Nc2ncnc3[nH]c(C#CCOc4ccccc4F)cc23)C1 [Example 85, (R)-1-(3-((6-(3-(2-fluorophenoxy)prop-1-yn-1-yl)-7H-pyrrolo[2,3-d]pyrimidin-4-yl)amino)pyrrolidin-1-yl)prop-2-yn-1-one] | 0.091 |
| 0.018 | C=CC(=O)N1CC[C@@H](Nc2ncnc3[nH]c(C#CCn4ncc5ccccc54)cc23)C1 [Example 86, (R)-1-(3-((6-(3-(1H-indazol-1-yl)prop-1-yn-1-yl)-7H-pyrrolo[2,3-d]pyrimidin-4-yl)amino)pyrrolidin-1-yl)prop-2-en-1-one] | 0.018 |
| 0.043 | C=CC(=O)N1CC[C@@H](Nc2ncnc3[nH]c(C#CCOc4ccccc4C(F)(F)F)cc23)C1 [Example 87, (R)-1-(3-((6-(3-(2-(trifluoromethyl)phenoxy)prop-1-yn-1-yl)-7H-pyrrolo[2,3-d]pyrimidin-4-yl)amino)pyrrolidin-1-yl)prop-2-en-1-one] | 0.002 |
| 0.018 | C=CC(=O)N1CC[C@@H](Nc2ncnc3[nH]c(C#CCOc4c(F)cccc4OC)cc23)C1 [Example 88, (R)-1-(3-((6-(3-(2-fluoro-6-methoxyphenoxy)prop-1-yn-1-yl)-7H-pyrrolo[2,3-d]pyrimidin-4-yl)amino)pyrrolidin-1-yl)prop-2-en-1-one] | 0.02 |
| 0.148 | C=CC(=O)N1CC[C@@H](Nc2ncnc3[nH]c(C#CCOc4cccc5sccc45)cc23)C1 [Example 89, (R)-1-(3-((6-(3-(benzo[b]thiophen-4-yloxy)prop-1-yn-1-yl)-7H-pyrrolo[2,3-d]pyrimidin-4-yl)amino)pyrrolidin-1-yl)prop-2-en-1-one] | 0.006 |
| 0.014 | C=CC(=O)N1CC[C@@H](Nc2ncnc3[nH]c(C#CCOc4c(F)cccc4F)cc23)C1 [Example 90, (R)-1-(3-((6-(3-(2,6-difluorophenoxy)prop-1-yn-1-yl)-7H-pyrrolo[2,3-d]pyrimidin-4-yl)amino)pyrrolidin-1-yl)prop-2-en-1-one] | 0.014 |
| 0.008 | C=CC(=O)N1CC[C@@H](Nc2ncnc3[nH]c(C#CCOc4cccc(F)c4F)cc23)C1 [Example 91, (R)-1-(3-((6-(3-(2,3-difluorophenoxy)prop-1-yn-1-yl)-7H-pyrrolo[2,3-d]pyrimidin-4-yl)amino)pyrrolidin-1-yl)prop-2-en-1-one] | 0.0015 |
| 0.043 | C=CC(=O)N1CC[C@@H](Nc2ncnc3[nH]c(C#CCOc4cc(F)ccc4F)cc23)C1 [Example 92, (R)-1-(3-((6-(3-(2,5-difluorophenoxy)prop-1-yn-1-yl)-7H-pyrrolo[2,3-d]pyrimidin-4-yl)amino)pyrrolidin-1-yl)prop-2-en-1-one] | 0.0038 |
| 0.578 | O=C(C1CC1)N1CC[C@@H](Nc2ncnc3[nH]c(C#CCOc4ccccc4F)cc23)C1 [Example 93, (R)-cyclopropyl(3-((6-(3-(2-fluorophenoxy)prop-1-yn-1-yl)-7H-pyrrolo[2,3-d]pyrimidin-4-yl)amino)pyrrolidin-1-yl)methanone] | 4.2 |
| 0.346 | O=C([C@H]1C[C@H]1F)N1CC[C@@H](Nc2ncnc3[nH]c(C#CCOc4ccccc4F)cc23)C1 [Example 94, ((1R,2R)-2-fluorocyclopropyl)((R)-3-((6-(3-(2-fluorophenoxy)prop-1-yn-1-yl)-7H-pyrrolo[2,3-d]pyrimidin-4-yl)amino)pyrrolidin-1-yl)methanone] | 3.58 |
| 0.014 | C=CC(=O)N1CCC[C@@H](Nc2ncnc3[nH]c(C#Cc4ccccc4)cc23)C1 [Example 96, (R)-1-(3-((6-(phenylethynyl)-7H-pyrrolo[2,3-d]pyrimidin-4-yl)amino)piperidin-1-yl)prop-2-en-1-one] | 0.066 |
| 0.027 | C=CC(=O)N1CCC[C@@H](Nc2ncnc3[nH]c(C#Cc4ccc5c(c4)OCO5)cc23)C1 [Example 97, (R)-1-(3-((6-(benzo[d][1,3]dioxol-5-ylethynyl)-7H-pyrrolo[2,3-d]pyrimidin-4-yl)amino)piperidin-1-yl)prop-2-en-1-one] | 0.004 |
| 0.006 | C=CC(=O)N1CC[C@@H](Nc2ncnc3[nH]c(C#CCOc4c(F)cccc4F)nc23)C1 [Example 98, (R)-1-(3-((8-(3-(2,6-difluorophenoxy)prop-1-yn-1-yl)-9H-purin-6-yl)amino)pyrrolidin-1-yl)prop-2-en-1-one] | 0.005 |
| 0.0003 | C=CC(=O)N1CC[C@@H](Nc2ncnc3[nH]c(C#CCOc4cccc(F)c4F)nc23)C1 [Example 99, (R)-1-(3-((8-(3-(2,3-difluorophenoxy)prop-1-yn-1-yl)-9H-purin-6-yl)amino)pyrrolidin-1-yl)prop-2-en-1-one] | 0.001 |
| 0.032 | C=CC(=O)N1CC[C@@H](Nc2ncnc3[nH]c(C#CCOc4cccc(F)c4Cl)nc23)C1 [Example 100, (R)-1-(3-((8-(3-(2-chloro-3-fluorophenoxy)prop-1-yn-1-yl)-9H-purin-6-yl)amino)pyrrolidin-1-yl)prop-2-en-1-one] | 0.006 |
| 0.001 | C=CC(=O)N1CC[C@@H](Nc2ncnc3[nH]c(C#CCOc4ccccc4F)nc23)C1 [Example 101, (R)-1-(3-((8-(3-(2-fluorophenoxy)prop-1-yn-1-yl)-9H-purin-6-yl)amino)pyrrolidin-1-yl)prop-2-en-1-one] | 0.003 |
| 0.0002 | C=CC(=O)N1CC[C@@H](Nc2ncnc3[nH]c(C#CCOc4ccccc4OC)nc23)C1 [Example 102, (R)-1-(3-((8-(3-(2-methoxyphenoxy)prop-1-yn-1-yl)-9H-purin-6-yl)amino)pyrrolidin-1-yl)prop-2-en-1-one] | 0.004 |
| 0.0003 | C=CC(=O)Nc1cccc(Nc2ncnc3[nH]c(C#Cc4ccccc4)cc23)c1 [Example 103, N-(3-((6-(phenylethynyl)-7H-pyrrolo[2,3-d]pyrimidin-4-yl)amino)phenyl)acrylamide] | 0.079 |
| 0.006 | C=CC(=O)Nc1cccc(Nc2ncnc3[nH]c(C#Cc4ccsc4)cc23)c1 [Example 104, N-(3-((6-(thiophen-3-ylethynyl)-7H-pyrrolo[2,3-d]pyrimidin-4-yl)amino)phenyl)acrylamide] | 0.017 |
| 0.155 | C=CC(=O)Nc1cccc(Nc2ncnc3[nH]c(C#Cc4ccc(Cl)cc4)cc23)c1 [Example 105, N-(3-((6-((4-chlorophenyl)ethynyl)-7H-pyrrolo[2,3-d]pyrimidin-4-yl)amino)phenyl)acrylamide] | 0.048 |
